# US20050175589A1, “Anti-neoplastic viral agents” (priority 2001, published 2005)
# What was measured:
# [1] = tested on: Hct116 cells with homozygous deletion of p53
# Method: (§1) (a) Sensitivity of colon cancer cell lines to 5-FU. Cells were stained four days after addition of the drug. (b to e, g) Cytopathic effect assays using 10-fold dilutions of virus starting from a concentration of 10 pfu/cell. Fresh medium was added four days after infection and cells were stained 5 (SW480), 7 (Hct116 and Hct116^−/−), or 8 (HT29 and HLF) days post-infection. (f) 5-FC was added either immediately after infection (early, E) or four days after infection (late, L). Cells were stained 8 days after infection.
# (§2) Cells in six-well plates were infected with ten-fold dilutions of virus in DMEM. Two hours after infection, the medium was replaced with complete medium containing or not 100 μg/ml of 5-fluorocytosine (Sigma, St. Louis, USA). Four days after infection, new medium was added. Late addition of 5-FC was performed at that time. After five to eight days (see legend to FIG. 4), the cells were fixed with 4% formaldehyde in PBS and stained with crystal violet. For the sensitivity to 5-fluorouracil (Sigma, St. Louis, USA), the drug was added at various concentrations for four days before staining with crystal violet.
# SW480 cells = tested on: SW480 cells
# Method: as §1, §2
structure (smiles),measurement,setting,value
"O=c1[nH]cc(F)c(=O)[nH]1 [5-FU, 5-fluorouracil]",resistance of p53-deleted Hct116 cells to 5-FU relative to parental cells,[1],only slightly more resistant than the parental cells
same,resistance of SW480 cells to 5-FU relative to the other cell lines,SW480 cells,at least 10 fold
